Test results published in patent US20240139144A1, “COPPER CHELATOR, ANTICANCER AGENT AND PROPHYLACTIC OR THERAPEUTIC AGENT FOR WILSON'S DISEASE” (Murata Manufacturing Co., Ltd., priority 2021, published 2024).

Experiments:
[1] = Evaluation of copper chelating action by LC-MS after addition of CuCl2; type: binding; conditions: for copper chelating action: 10 mM compound in methanol, aqueous CuCl2 added to final 100 mM, shaken at 30° C. for 60 minutes, LC-MS; for peak of the ion of the compound (free compound) in the sample in which a copper ion was added / peak of the ion of the complex of the compound and a copper ion in the sample in which a copper ion was added: LC-MS positive mode, CuCl2 100 mM, 30° C., 60 minutes; for peak of the ion of the compound (free compound) in the sample in which a copper ion was added: m/z 379.00 for (1a), m/z 397.00 for (2a); for peak of the ion of the complex of the compound and a copper ion in the sample in which a copper ion was added: m/z 441.00 for (1a), m/z 459.00 for (2a)
Description: (Method for Evaluating Copper Chelating Action)
An aqueous CuCl2 solution was added to a methanol solution of 10 mM compound (1a) or 10 mM compound (2a) so as to have a final concentration of 100 mM, and the mixture was shaken at 30° C. for 60 minutes, and then analyzed by LC-MS. A methanol solution of 10 mM compound (la) or 10 mM compound (2a) to which an aqueous CuCl2 solution was not added was also analyzed by LC-MS.
(LC-MS measurement conditions)
Pure water to which 0.1% formic acid was added was used as a solvent A, and acetonitrile was used as a solvent B. The samples were separated on a reversed-phase column (Cosmosil 5.0C 18-MS-II 2.0×100 mm (manufactured by Nacalai Tesque, Inc.)). At this time, the flow rate was set to 0.2 ml/min, and elution was performed in a gradient mode in which the proportion of the solvent B was set to 2% until 2 minutes, and then changed from 2 to 98% from 2 to 15 minutes. The eluted sample was ionized by electrospray ionization method in a positive mode.

gram-positive bacteria = conditions: against gram-positive bacteria; cited from earlier work
Candida albicans = conditions: against Candida albicans; cited from earlier work

[C-]#[N+][C@@H](Cc1ccc(O)c(-c2cc(C[C@H]([N+]#[C-])C(N)=O)ccc2O)c1)C(N)=O [compound (1a)]
copper chelating action [1]: has a copper chelating action | peak of the ion of the compound (free compound) in the sample in which a copper ion was added [1]: not observed | peak of the ion of the complex of the compound and a copper ion in the sample in which a copper ion was added [1]: observed | copper chelating action compared between compounds ([1]; comparison between FIGS. 1 and 2 and FIGS. 4 and 5): stronger than that of the compound (2a)

[C-]#[N+][C@@H](Cc1ccc(O)c(-c2cc(C[C@H](NC=O)C(N)=O)ccc2O)c1)C(N)=O [compound (2a)]
copper chelating action [1]: has a copper chelating action | peak of the ion of the compound (free compound) in the sample in which a copper ion was added [1]: small | peak of the ion of the complex of the compound and a copper ion in the sample in which a copper ion was added [1]: observed

hazimycin A
antimicrobial activity (gram-positive bacteria): antimicrobial activity | antimicrobial activity (Candida albicans): antimicrobial activity
